{"source": "a melting point compilation (Tetko et al.; mined from patent text by program, amines drawn as free bases though some values may be those of a salt)"}
{"units": {"melting point": "°C"}}
{"molecule": "CC(C)(C)N1C(=O)c2cnc(-c3ccccc3)nc2N(C(=O)CN2CCCCC2)c2ccccc21", "melting point": "193 to 194"}
{"molecule": "CC(NC(=O)CCl)(c1ccccc1)c1ccccc1", "melting point": "73 to 74"}
{"molecule": "CCCCOC(=O)S(=O)(=O)Nc1sc(CC(C)C)cc1-c1ccc(Cn2c(-c3ccccc3)nc(OC)c2C=O)c(Cl)c1", "melting point": 58}
{"molecule": "CN1C(=O)C(C)(C)N=C(c2ccccc2F)c2cc(N)ccc21", "melting point": "190 to 191"}
{"molecule": "O=c1cc2sc3ccccc3nc-2c2ccccc12", "melting point": "176 to 177"}
{"molecule": "COC(=O)[C@@H](C)Nc1ncccc1NC(=O)c1ccc(Cl)cc1", "melting point": "125 to 134"}
{"molecule": "Nc1c(NCCCOc2cccc(CO)c2)c(=O)c1=O", "melting point": "207 to 212"}
{"molecule": "CCOCc1nc2c(N)nc3cc(-c4ccccc4)ccc3c2n1CC1CCN(C(=O)OC(C)(C)C)CC1", "melting point": "194 to 195"}
{"molecule": "O=C(c1ccc2nonc2c1)N1C2CCCC1COC2", "melting point": "128 to 130"}
{"molecule": "CC1(C)CCC(C)(C)c2cc3[nH]c(S)nc3cc21", "melting point": "> 300"}
{"molecule": "COc1ccccc1-n1c(=O)[nH]c2c(C(N)=O)nc(Nc3cccc(O)c3)nc21", "melting point": "190 to 191"}
{"molecule": "O=C(O)c1cnncc1C(=O)c1cc(F)ccc1F", "melting point": "202 to 205"}
{"molecule": "Nc1cc(-c2nc3ccccn3c2Br)c(F)cc1F", "melting point": 137}
{"molecule": "CCOC(=NC(=O)OC)NC(=O)Nc1ccc(Cl)cc1Cl", "melting point": "92 to 93"}
{"molecule": "CC(=O)c1cc(OCC(O)COc2ccc(C#N)cc2)ccc1O", "note": "(stereo not drawn)", "melting point": "118 to 120"}
{"molecule": "Cc1nn(-c2cc(C(=O)O)c(Cl)cc2F)c(=O)n1C(F)F", "melting point": "132 to 135"}
{"molecule": "CC(Cl)C(=O)c1ccc(OCCCN2C(=O)c3ccccc3C2=O)cc1", "note": "(stereo not drawn)", "melting point": "137 to 138"}
{"molecule": "O=C(NCC(F)(F)F)C1(CCCCc2ccc(NS(=O)(=O)c3ccccc3)cc2)c2ccccc2-c2ccccc21", "melting point": "130 to 132"}
{"molecule": "Cc1nc(-c2cccnc2)c(C)[nH]1", "melting point": "179 to 181"}
{"molecule": "N#CCc1c[nH]c2ccc(NC(=O)NC3CCCCC3)cc12", "melting point": "233 to 234"}
{"molecule": "COc1cccc(-c2cc(F)cc3c2OC(CN)C3)c1OC", "note": "(stereo not drawn)", "melting point": "166 to 167"}
{"molecule": "COc1ccc2c(c1)c(=O)oc1c(C(C)=O)c(O)ccc12", "melting point": "197 to 199"}
{"molecule": "Cn1nc2c(N)nc3c(c2c1CCC1CCCCC1)CCCC3", "melting point": "230 to 231"}
{"molecule": "CC1CN(c2cc3c(cc2F)c(=O)c(C(=O)O)c2n3C(C)S2)CCN1C", "note": "(stereo not drawn)", "melting point": "198 to 201"}
{"molecule": "CP1(=O)c2ccccc2CN1c1cccc(C(F)(F)F)c1", "note": "(stereo not drawn)", "melting point": "161 to 163"}
{"molecule": "COc1cc(OC)nc(NC(=O)NS(=O)(=O)Nc2nc(OC)cc(OC)n2)n1", "melting point": 210}
{"molecule": "COC(=O)C(=O)c1ccc(OCCCC(=O)c2ccc3ccccc3c2)cc1", "melting point": "86 to 87"}
{"molecule": "CCCCCCCCCCCCCCOc1cccc(CO)c1", "melting point": "49 to 50"}
{"molecule": "COC(=O)c1c(OC)ccc([N+](=O)[O-])c1OC", "melting point": "77 to 78"}
{"molecule": "CCOc1cc2c(cc1OC(C)=O)CCC1C2CCC2(C)C(OC(C)=O)CCC12", "note": "(stereo not drawn)", "melting point": "132 to 133"}
{"molecule": "COCC(=O)NCCC1CCCc2ccc(OC)cc21", "note": "(single isomer, unassigned; (-))", "melting point": "58 to 60"}
{"molecule": "O=C(NC/C=C\\COc1cc(CN2CCCCC2)ccn1)NC1CCCC1", "melting point": "121 to 124"}
{"molecule": "c1ccc(-c2cn3ccsc3n2)cc1", "melting point": "143 to 144"}
{"molecule": "CC(O)(CC(=O)O)c1ccc(-c2ccc(F)cc2F)cc1", "note": "(stereo not drawn)", "melting point": "121 to 123"}
{"molecule": "CS(=O)(=O)c1cc(OCc2ccccc2)c(C(=O)O)s1", "melting point": "188 to 189"}
{"molecule": "CCCN(CCC)Sc1nc2ccccc2s1", "melting point": "57 to 59"}
{"molecule": "O=C(O)COc1ccc(C(=O)O)c(Cl)c1Cl", "melting point": "> 250"}
{"molecule": "O=c1[nH]c2ccc3c(c2o1)OC(CN1CC=C(c2c[nH]c4ccccc24)CC1)CO3", "note": "(stereo not drawn)", "melting point": 202}
{"molecule": "COc1cc(C(=O)N2Cc3cccn3Cc3ccccc32)ccc1-n1c(C)ccc1C", "melting point": "141 to 144"}
{"molecule": "COc1ccc(CSc2nnc(-c3ccc4c(c3)CCO4)o2)cc1", "melting point": "121 to 124"}
{"molecule": "O=Cc1ccccc1OC(=O)C(=O)Oc1ccccc1C=O", "melting point": "134 to 135"}
{"molecule": "COC(=O)c1ccc(C2NCCc3c2[nH]c2ccccc32)cc1", "note": "(stereo not drawn)", "melting point": 179}
{"molecule": "Clc1ccc(Cc2cccc(-c3ncc4c(n3)CCCC4)n2)cn1", "melting point": "115 to 120"}
{"molecule": "Oc1ccc2[nH]cc(C3=CCN(Cc4ccccc4)CC3)c2c1", "melting point": "223 to 227"}
{"molecule": "CCCc1nc(C(O)C(C)(C)C)c(C(=O)O)n1Cc1ccc(-c2ccccc2C(=O)OC(C)(C)C)cc1", "note": "(stereo not drawn)", "melting point": 207}
{"molecule": "O=C(c1ccccc1)c1[nH]c2cc(Cl)ccc2c1CC(=O)N1CCCCC1", "melting point": "223 to 224"}
{"molecule": "CN1CSC(Cc2cc(C(C)(C)C)c(O)c(C(C)(C)C)c2)C1=O", "note": "(stereo not drawn)", "melting point": "102 to 105"}
{"molecule": "CCOC(=O)C(=Cc1cccc2ccccc12)c1csc(N)n1", "melting point": "155 to 157"}
{"molecule": "COC(=O)CC(C#Cc1ccc(C(=O)O)cc1)c1ccc(OC)c(OC2CCCC2)c1", "note": "(racemic)", "melting point": "109 to 110"}
{"molecule": "CC(=O)N1CCc2c(sc(C)c2CCCCN2CCC(c3noc4cc(F)ccc34)CC2)C1", "melting point": "158 to 160"}
{"molecule": "CCc1cc(O)c2c(ccc3nc[nH]c32)n1", "melting point": "309 to 317"}
{"molecule": "O=[N+]([O-])c1c(SCc2ccccc2)ccc2ccncc12", "melting point": "151 to 153"}
{"molecule": "COc1ccc(S(=O)(=O)Nc2cc(C(=O)Nc3ccccc3)ccc2OC)cc1", "melting point": "184 to 186"}
{"molecule": "CC(C)CC1(C)C(=O)N(Cc2ccccc2)CCN1Cc1ccccc1", "note": "(stereo not drawn)", "melting point": "98 to 101"}
{"molecule": "COc1cc(Cl)cc(C)c1Nc1nc2c(Cl)ccc(C(O)(C(C)C)C(C)C)c2n1C", "melting point": "218 to 219"}
{"molecule": "COC(=O)C1CC(=O)n2c3c(c4cc(F)ccc42)CCNC31", "note": "(stereo not drawn)", "melting point": 172}
{"molecule": "CC(C)(C)OC(=O)[C@@H]1N(S(=O)(=O)c2ccc(O)cc2)CCSC1(C)C", "melting point": 171}
{"molecule": "CS(=O)c1ncc2ccc(=O)[nH]c2n1", "note": "(stereo not drawn)", "melting point": "237 to 242"}
{"molecule": "CCOC(=O)CCCn1c(Nc2c(C)noc2C)nc2c(Cl)ccc(C(CC)CC)c21", "melting point": "135 to 138"}
{"molecule": "COC(=O)[C@H](Cc1ccc(N2C(=O)c3ccc(Br)cc3C2=O)cc1)NC(=O)OC(C)(C)C", "melting point": "168 to 170"}
{"molecule": "O=[N+]([O-])c1ccc2c(c1-c1n[nH]cc1Cl)OC(F)(F)O2", "melting point": 180}
{"molecule": "CCn1c(=O)c2cc(C(=O)O)cn2c2ccccc21", "melting point": "314 to 316"}
{"molecule": "O=C1N=c2ccccc2=C1C1CCNCC1", "melting point": 156}
{"molecule": "COc1cc(OC)c2c(=O)[nH]c(-c3cccc(N4CCN(CC(C)C)CC4)n3)nc2c1", "melting point": "188 to 189"}
{"molecule": "CCc1[nH]c2cc(F)ccc2c1C1=CCNCC1", "melting point": "194 to 196"}
{"molecule": "N#CCC1(c2ccc(Cl)cc2)CCC1", "melting point": "63 to 65"}
{"molecule": "CC(=O)c1cccc2c1Cc1ccccc1-2", "melting point": "84 to 87"}
{"molecule": "O=C(NC1CN2CCC1CC2)c1cc(Cl)cc2oc(-c3ccccc3)nc12", "note": "(stereo not drawn)", "melting point": "180 to 183"}
{"molecule": "CCOC(=O)CNc1nc(Cl)nc(Cl)n1", "melting point": "82 to 87"}
{"molecule": "COc1ccc(-c2cncc3cccc([N+](=O)[O-])c23)c(O)c1OC", "melting point": "170 to 174"}
{"molecule": "Cc1cc(OCc2c(-c3c(Cl)cccc3Cl)noc2C(C)C)cnc1Oc1ccc(C(=O)O)cc1", "melting point": "74 to 76"}
{"molecule": "CCCCNC(=S)Nc1ccc(NNC=O)cc1", "melting point": "129 to 131"}
{"molecule": "O=C(O)CCn1nc(-c2c(-c3ccccc3)nn3ccccc23)ccc1=O", "melting point": 156}
{"molecule": "O=C1Nc2c(cc(F)c(F)c2F)C1=O", "melting point": "193 to 194"}
{"molecule": "CC(C)(C)OC(=O)NCCCC(c1cc(F)ccc1F)S(=O)(=O)c1ccc(Cl)cc1", "note": "(stereo not drawn)", "melting point": "119 to 120"}
{"molecule": "CC(=O)Nc1ccccc1NS(=O)(=O)c1cc(C(=O)O)cc([N+](=O)[O-])c1Cl", "melting point": "225 to 227"}
{"molecule": "COc1cc2c(cc1OC)CN(CCc1cccc(NC(=O)c3cccc4c(=O)c5cccc(OC)c5[nH]c34)c1)CC2", "melting point": 152}
{"molecule": "Cc1nc(S)c2[nH]cnc2n1", "melting point": "> 300"}
{"molecule": "O=C(O)Cc1cc(C(=O)c2ccc3cc(-c4ccccc4)[nH]c3c2)sc1-c1ccccc1", "melting point": "238 to 240"}
{"molecule": "CNC(=O)[C@]1(n2cnc3c(NCc4cccc(I)c4)nc(Cl)nc32)SC[C@H](O)[C@@H]1O", "melting point": "205 to 207"}
{"molecule": "CCCC(=O)Nc1cccc(-c2cccc(OC)c2)c1", "melting point": "90 to 91"}
{"molecule": "CC(C)(C)n1ncc(N)c(Cl)c1=O", "melting point": "194 to 198"}
{"molecule": "O=S(=O)(Nc1ccc2c(OCc3ccc(-c4ccc(Cl)c(Cl)c4)cc3Cl)cccc2c1)C(F)(F)F", "melting point": "169 to 170"}
{"molecule": "NS(=O)(=O)c1cc2c(s1)CCCC2O", "note": "(stereo not drawn)", "melting point": "102 to 103"}
{"molecule": "CCOC(=O)c1cnn(C)c1C(=O)Nc1ccn2nc(Br)nc2c1", "melting point": "177 to 180"}
{"molecule": "COC(=O)c1c(C(F)F)nc(C(F)(F)F)c(C(=O)SC)c1NC1CC1", "melting point": "108 to 109"}
{"molecule": "CC1(C(Cl)(Cl)Cl)C=CC(=O)C=C1", "melting point": 103}
{"molecule": "CCOCOCCCOn1cnc2c(=O)[nH]c(N)nc21", "melting point": "242 to 245"}
{"molecule": "CN(c1cccc2cc(-c3nc(CCC(N)=O)cs3)[nH]c12)S(=O)(=O)c1cccs1", "melting point": "200 to 201"}
{"molecule": "N#CCc1nnc2n1-c1sc(Cl)cc1C(c1ccccc1Cl)=NC2", "melting point": "217 to 220"}
{"molecule": "CCOC(=O)c1cc(SCc2ccccc2)c(Cl)c(S(N)(=O)=O)c1", "melting point": 182}
{"molecule": "Cc1ccc(S(=O)(=O)c2c(O)c3ccccc3n(C)c2=O)cc1", "melting point": 191}
{"molecule": "Cc1nccn1Cc1ccc(COc2cccc3c2CN(C2CCC(=O)NC2=O)C3=O)cc1", "note": "(stereo not drawn)", "melting point": "275 to 277"}
{"molecule": "O=C(CCCl)NC(=O)Nc1cc(C(F)(F)F)cc(C(F)(F)F)c1", "melting point": 175}
{"molecule": "Cc1nc(-c2[nH]c3ccccc3c2C=O)no1", "melting point": "228 to 230"}
{"molecule": "CC1(C)CCC(C(=O)COS(=O)(=O)c2ccccc2)CC1", "melting point": "34.5 to 35"}
{"molecule": "CCCn1c(C)c(C(C)=O)c(N)c1-c1ccccc1", "melting point": "113 to 115"}
{"molecule": "COc1ccc(OCCc2ccccc2)c(CC(=O)O)c1", "melting point": "56.5 to 57.5"}
{"molecule": "COC(=O)C=Cc1ccc(C)cc1", "melting point": "55 to 56"}
{"molecule": "Clc1ccc2c(Cl)nc(-c3ccc(Br)cc3)nc2c1", "melting point": "189 to 190"}
{"molecule": "COc1cc2c(cc1Nc1ncc(Cl)c(Nc3ccccc3S(=O)(=O)N(C)C)n1)CCN(Cc1nccn1C)CC2", "melting point": "79 to 86"}
{"molecule": "CN(C)C=CC(=O)c1ccc(OCC(O)CN2CCN(c3ccc(Cl)cc3)CC2)cc1", "note": "(stereo not drawn)", "melting point": 185}
{"molecule": "C=C1CCCc2ccc(OCc3ccc4ccccc4n3)cc21", "melting point": "56 to 58"}
